Where a name gives a salt, the structure may show the parent alone.
Experiments:
[1] = target: T1, B1R receptor of the rat (Rattus norvegicus, UniProt P97583); experiment: Functional study on the bradykinin receptor 1 (B1R), FLIPR Ca2+ assay, rB1R cells; format: cell-based; details: agonist Des-Arg9-bradykinin 100 nM, % inhibition compared with the maximum achievable inhibition; for inhibition at 10 µM: CHO-K1, test substance 10 μM, read-out: B1R Antagonism, rat [10 μM] % Inhibition; for B1R Antagonism, rat [10 μM] % Inhibition: test substance 10 μM, rB1R CHO K1 cells
T1 construct: host or cells: CHO K1 cells (Chinese hamster ovary), stably transfected
T1 sequence (P97583 1-337): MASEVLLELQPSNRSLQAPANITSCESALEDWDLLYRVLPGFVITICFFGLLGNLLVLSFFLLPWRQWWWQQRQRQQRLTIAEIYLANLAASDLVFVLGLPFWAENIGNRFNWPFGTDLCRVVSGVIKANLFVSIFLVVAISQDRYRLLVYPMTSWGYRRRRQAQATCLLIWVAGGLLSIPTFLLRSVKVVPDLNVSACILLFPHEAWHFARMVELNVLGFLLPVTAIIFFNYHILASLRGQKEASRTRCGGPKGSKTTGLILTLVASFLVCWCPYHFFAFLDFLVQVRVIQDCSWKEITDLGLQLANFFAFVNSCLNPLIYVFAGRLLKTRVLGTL
Summary of the method: (§1)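 CHO K1 cells stably expressing human or rat B1R, Fluo-4-loaded; test compound 10 μM added first (activation % vs agonist), then after 10 min 0.5 nM Lys-Des-Arg9-bradykinin (human) or 100 nM Des-Arg9-bradykinin (rat). Ca2+ peak fluorescence by FLIPR; % inhibition relative to maximum achievable inhibition.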

[2] = target: T2, human B1R receptor (Homo sapiens, UniProt P46663); experiment: Functional study on the bradykinin receptor 1 (B1R), FLIPR Ca2+ assay, hB1R cells; format: cell-based; details: agonist Lys-Des-Arg9-bradykinin 0.5 nM, % inhibition compared with the maximum achievable inhibition; for inhibition at 10 µM: CHO-K1, test substance 10 μM, read-out: B1R Antagonism, human [10 μM] % Inhibition; for B1R Antagonism, human [10 μM] % Inhibition: test substance 10 μM, hB1R CHO K1 cells
T2 construct: host or cells: CHO K1 cells (Chinese hamster ovary), stably transfected
T2 sequence (P46663 1-353): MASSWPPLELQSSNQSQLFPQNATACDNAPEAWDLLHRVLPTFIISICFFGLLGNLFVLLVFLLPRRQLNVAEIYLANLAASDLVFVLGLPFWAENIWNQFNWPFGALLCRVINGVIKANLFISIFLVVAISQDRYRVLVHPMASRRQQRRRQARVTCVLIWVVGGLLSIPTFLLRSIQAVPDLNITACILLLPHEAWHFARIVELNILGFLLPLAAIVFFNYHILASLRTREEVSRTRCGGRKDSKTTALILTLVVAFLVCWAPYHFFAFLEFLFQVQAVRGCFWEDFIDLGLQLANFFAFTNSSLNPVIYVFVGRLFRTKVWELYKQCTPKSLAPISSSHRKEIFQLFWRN
Summary of the method: as §1

Row | inhibition at 10 µM [1] [%] | inhibition at 10 µM [2] [%] | B1R Antagonism, rat [10 μM] % Inhibition [1] [%] | B1R Antagonism, human [10 μM] % Inhibition [2] [%] | Compound
1 | 103 | 108 | – | – | CN1CCC(N2CCN(C(=O)COCC3CCCCN3S(=O)(=O)c3cc(Cl)c(Cl)cc3Cl)CC2)CC1 (stereo not drawn) [Example 156, 1-(4-(1-methylpiperidin-4-yl)piperazin-1-yl)-2-((1-(2,4,5-trichlorophenylsulfonyl)piperidin-2-yl)methoxy)ethanone dihydrochloride]
2 | 97.3 | 97.2 | – | – | Cc1nccn1-c1ccc(NC(=O)COCC2CCCCN2S(=O)(=O)c2c(Cl)cccc2Cl)cc1 (stereo not drawn) [Example 527, 2-((1-(2,6-dichlorophenylsulfonyl)piperidin-2-yl)methoxy)-N-(4-(2-methyl-1H-imidazol-1-yl)phenyl)acetamide]
3 | 101 | 107 | – | – | COc1cc(C)c(S(=O)(=O)N2CCCC2COCC(=O)N2CCC(CCN3CCCC3)CC2)c(C)c1 (stereo not drawn) [Example 95, 2-((1-(4-methoxy-2,6-dimethylphenylsulfonyl)pyrrolidin-2-yl)methoxy)-1-(4-(2-(pyrrolidin-1-yl)ethyl)piperidin-1-yl)ethanone]
4 | – | – | 98.6 | 104 | COc1cc(C)c(S(=O)(=O)N2CCC[C@H]2COCC(=O)N2CCN(C3CCN(C)CC3)CC2)c(C)c1 [Example 180, (S)-2-((1-(4-methoxy-2,6-diimethylphenylsulfonyl)pyrrolidin-2-yl)methoxy)-1-(4-(1-methylpiperidin-4-yl)piperazin-1-yl)ethanone]
5 | 101 | 0.38 | – | – | COc1cc(C)c(S(=O)(=O)N2CCCCC2COCC(=O)Nc2nc3ccccc3n2C)c(C)c1 (stereo not drawn) [Example 371, 2-((1-(4-methoxy-2,6-dimethylphenylsulfonyl)piperidin-2-yl)methoxy)-N-(1-methyl-1H-benzo[d]imidazol-2-yl)acetamide]
6 | 101 | 105 | – | – | COc1cc(C)c(S(=O)(=O)N2CCCCC2COCC(=O)N2CCN(C3CCOCC3)CC2)c(C)c1 (stereo not drawn) [Example 104, 2-((1-(4-methoxy-2,6-dimethylphenylsulfonyl)piperidin-2-yl)methoxy)-1-(4-(tetrahydro-2H-pyran-4-yl)piperazin-1-yl)ethanone]
7 | – | – | 100.94 | 48.25 | COc1cc(C)c(S(=O)(=O)N2CCCCC2COCC(=O)NCc2ccc(N3CCOCC3)cc2)c(C)c1 (stereo not drawn) [Example 439, 2-((1-(4-methoxy-2,6-dimethylphenylsulfonyl)piperidin-2-yl)methoxy)-N-(4-morpholinobenzyl)acetamide]
8 | 84.9 | 96 | – | – | COc1cc(C)c(S(=O)(=O)N2CCCC2COCC(=O)N2CCC(c3ccncc3)C2)c(C)c1 (stereo not drawn) [Example 273, 2-((1-(4-methoxy-2,6-dimethylphenylsulfonyl)pyrrolidin-2-yl)methoxy)-1-(3-(pyridin-4-yl)pyrrolidin-1-yl)ethanone]
9 | 44.4 | 42.7 | – | – | Cc1cc(C)c(S(=O)(=O)N2CCCCC2COCC(=O)Nc2ccc(-n3ccnc3C)cc2)c(C)c1 (stereo not drawn) [Example 87, N-[4-(2-methyl-imidazol-1-yl)-phenyl]-2-[1-(2,4,6-trimethyl-phenylsulfonyl)-piperidin-2-ylmethoxy]-acetamide]
10 | 103 | 98.6 | – | – | O=C(COCC1CCCN1S(=O)(=O)c1c(Cl)cccc1Cl)N1CCN(Cc2ccc(Cl)cc2)CC1 (stereo not drawn) [Example 359, 1-(4-(4-chlorobenzyl)piperazin-1-yl)-2-((1-(2,6-dichlorophenylsulfonyl)pyrrolidin-2-yl)methoxy)ethanone]
11 | 99.5 | 40.6 | – | – | COc1cc(C)c(S(=O)(=O)N2CCCC2COCC(=O)Nc2ccc(N3CCOCC3)c(Cl)c2)c(C)c1 (stereo not drawn) [Example 493, N-(3-chloro-4-morpholinophenyl)-2-((1-(4-methoxy-2,6-dimethylphenylsulfonyl)pyrrolidin-2-yl)methoxy)acetamide]
12 | 102 | 56.6 | – | – | COc1cc(C)c(S(=O)(=O)N2CCCC2COCC(=O)N(Cc2ccccc2)c2cccc(C)n2)c(C)c1 (stereo not drawn) [Example 464, N-benzyl-2-((1-(4-methoxy-2,6-dimethylphenylsulfonyl)pyrrolidin-2-yl)methoxy)-N-(6-methylpyridin-2-yl)acetamide]
13 | 99 | 102 | – | – | O=C(COCC1CCCCN1S(=O)(=O)c1c(Cl)cccc1Cl)N1CCN(Cc2ccc(Cl)cc2)CC1 (stereo not drawn) [Example 407, 1-(4-(4-chlorobenzyl)piperazin-1-yl)-2-((1-(2,6-dichlorophenylsulfonyl)piperidin-2-yl)methoxy)ethanone]
14 | 98.8 | -0.97 | – | – | COc1cc(C)c(S(=O)(=O)N2CCCCC2COCC(=O)NCCc2cnccn2)c(C)c1 (stereo not drawn) [Example 425, 2-((1-(4-methoxy-2,6-dimethylphenylsulfonyl)piperidin-2-yl)methoxy)-N-(2-(pyrazin-2-yl)ethyl)acetamide]
15 | 95.4 | 82.1 | – | – | Cc1ccccc1Oc1cccc(S(=O)(=O)N2CCCCC2COCC(=O)N2CCN(C3CCN(C)CC3)CC2)c1 (stereo not drawn) [Example 131, 1-(4-(1-methylpiperidin-4-yl)piperazin-1-yl)-2-((1-(3-(o-tolyloxy)phenylsulfonyl)piperidin-2-yl)methoxy)ethanone]
16 | 96.8 | 97.1 | – | – | COc1cc(C)c(S(=O)(=O)N2CCCCC2COCC(=O)N2CCC(Oc3cccnc3)CC2)c(C)c1 (stereo not drawn) [Example 165, 2-((1-(4-methoxy-2,6-dimethylphenylsulfonyl)piperidin-2-yl)methoxy)-1-(4-(pyridin-3-yloxy)piperidin-1-yl)ethanone]
17 | 101 | 105 | – | – | CN(C(=O)COCC1CCCCN1S(=O)(=O)c1c(Cl)cccc1Cl)[C@H]1CCN(Cc2ccccc2)C1 (stereo partly drawn) [Example 315, N—((S)-1-benzylpyrrolidin-3-yl)-2-((1-(2,6-dichlorophenylsulfonyl)piperidin-2-yl)methoxy)-N-methylacetamide]
18 | 101 | 57.8 | – | – | O=C(COCC1CCCCN1S(=O)(=O)c1c(Cl)cccc1Cl)N1CCN(c2ccc(C(F)(F)F)cc2)CC1 (stereo not drawn) [Example 550, 2-((1-(2,6-dichlorophenylsulfonyl)piperidin-2-yl)methoxy)-1-(4-(4-(trifluoromethyl)phenyl)piperazin-1-yl)ethanone]
19 | 101 | 107 | – | – | CC(C)N(CCN1CCN(C(=O)COCC2CCCN2S(=O)(=O)c2c(Cl)cc(Cl)cc2Cl)CC1)C(C)C (stereo not drawn) [Example 333, 1-(4-(2-(diisopropylamino)ethyl)piperazin-1-yl)-2-((1-(2,4,6-trichlorophenylsulfonyl)pyrrolidin-2-yl)methoxy)ethanone]
20 | 99.2 | 98.5 | – | – | Cc1cccc(Cl)c1S(=O)(=O)N1CCC[C@H]1COCC(=O)N1CCC(CCN2CCCC2)CC1 [Example 161, (S)-2-((1-(2-chloro-6-methylphenylsulfonyl)pyrrolidin-2-yl)methoxy)-1-(4-(2-(pyrrolidin-1-yl)ethyl)piperidin-1-yl)ethanone hydrochloride]
21 | 101 | 91.5 | – | – | CCN(CC)CCN(CC)C(=O)COCC1CCCCN1S(=O)(=O)c1c(C)cc(OC)cc1C (stereo not drawn) [Example 380, N-(2-(diethylamino)ethyl)-N-ethyl-2-((1-(4-methoxy-2,6-dimethylphenylsulfonyl)piperidin-2-yl)methoxy)acetamide]
22 | 96.9 | 104 | – | – | CN1CCN(C2CCN(C(=O)COCC3CCCCN3S(=O)(=O)c3c(Cl)cccc3Cl)CC2)CC1 (stereo not drawn) [Example 278, 2-((1-(2,6-dichlorophenylsulfonyl)piperidin-2-yl)methoxy)-1-(4-(4-methylpiperazin-1-yl)piperidin-1-yl)ethanone]
23 | – | – | 100.08 | 103.76 | COc1cc(C)c(S(=O)(=O)N2CCCCC2COCC(=O)N2CCC(N3CCN4CCCCC4C3)CC2)c(C)c1.Cl.Cl (stereo not drawn) [Example 99]
24 | 101 | 105 | – | – | COc1cc(C)c(S(=O)(=O)N2CCCCC2COCC(=O)N2CCC(Cc3cccnc3)C2)c(C)c1 (stereo not drawn) [Example 208, 2-((1-(4-methoxy-2,6-dimethylphenylsulfonyl)piperidin-2-yl)methoxy)-1-(3-(pyridin-3-ylmethyl)pyrrolidin-1-yl)ethanone]

Reference: US8435978B2, “Substituted sulfonamide compounds” (Gruenenthal GmbH, priority 2006, dated 2013)
